Paper PMC3713598, “Renal Protective Role of Xiexin Decoction with Multiple Active Ingredients Involves Inhibition of Inflammation through Downregulation of the Nuclear Factor-κB Pathway in Diabetic Rats” (Evidence-based Complementary and Alternative Medicine : eCAM, 2013)
Like-named read-outs stand apart in the source and are kept apart here.

Key:
[1] = Pharmacokinetics of XXD ingredients in diabetic rat plasma (LC-MS/MS); type: in vivo; settings: for shape of plasma concentration-time curve / Tmax: after ig administration of XXD for 12 weeks; for Tmax / AUC(0-t) / Cmax: male, Sprague-Dawley, po; for Tmax: diabetic rat plasma, read-out: time of peak concentrations (converted); for AUC(0-t) / Cmax: rat
Method: Male Sprague-Dawley rats (90−100 g) were purchased from the Shanghai Slac Laboratory Animal Co. (Shanghai, China). The rats were housed in an air-conditioned room at 22–24°C under a 12-h dark/light cycle and were given food and water at libitum. All animal experiments were conducted in accordance with the institutional guidelines for the care and use of laboratory animals at Shanghai University of TCM. After 1-week adaptation, animals were divided into a normal control (NC) group fed a standard diet and a high-fat group received a high-fat diet. After 4 weeks, rats on the high-fat diet were treated with streptozotocin (40 mg/kg, intraperitoneal injection). […] In the clinical practice of TCM, XXD is usually prescribed at a daily dose of 46 g of herbal materials (amount to 12 g extract) for diabetic patient. When this human dose was converted into an animal dose (a person of 60 kg, and a conversion factor of 6.25 between human and rat), it was equivalent to the low dose (1.25 g/kg extract) used in this study. NC and DM were treated with vehicle (normal saline) in a matched volume. All the rats were administered the drugs via intragastric gavage (ig) once a day, for 12 weeks.
The rats treated with XXD for 12 weeks were fasted with free access to water for 12 h before the PK experiments. Blood samples were collected before dosing and at 0, 0.25, 0.5, 1, 2, 4, 6, 12, and 24 h following administration. A validated liquid chromatography-tandem mass spectrometry (LC-MS/MS) method was applied to simultaneously determine the concentration of 11 ingredients (coptisine, jatrorrhizine, berberine, palmatine, baicalin, baicalein, wogonoside, wogonin, rhein, emodin, and aloeemodin) in blood plasma. The plasma concentration-time data were analysed by noncompartmental methods with the WinNonLin software package (Pharsight Corporation, Mountain View, CA, USA) to determine PK parameters.

[2] = test system: diabetic nephropathy; settings: cited from earlier work
[3] = XXD 1.25 g/kg intragastric gavage for 12 weeks, diabetic rats, plasma, mean ± SD n = 8, read-out: AUC0–24 h
[4] = XXD 1.25 g/kg intragastric gavage for 12 weeks, diabetic rats, plasma, mean ± SD n = 8, read-out: C max
[5] = XXD 2.5 g/kg intragastric gavage for 12 weeks, diabetic rats, plasma, mean ± SD n = 8, read-out: AUC0–24 h
[6] = XXD 2.5 g/kg intragastric gavage for 12 weeks, diabetic rats, plasma, mean ± SD n = 8, read-out: C max

| Compound | shape of plasma concentration-time curve ([1]; diabetic rats) | Tmax [1] [min] | AUC(0-t) [1, 3] [µg·h/mL] | Cmax [1, 4] [µg/mL] | AUC(0-t) [1, 5] [µg·h/mL] | Cmax [1, 6] [µg/mL] | anti-DN effects [2] | further results |
| --- | --- | --- | --- | --- | --- | --- | --- | --- |
| O=C(O)[C@H]1O[C@@H](Oc2cc3oc(-c4ccccc4)cc(=O)c3c(O)c2O)[C@H](O)[C@@H](O)[C@@H]1O [Baicalin, baicalin] | double peaks | 10 | 4.7 ± 1.73 | 1.56 ± 0.57 | 16.1 ± 9.6 | 4.31 ± 1.71 | exhibited anti-DN effects | renal TGF-β1 protein expression [2]: downregulate |
| Cc1cc(O)c2c(c1)C(=O)c1cc(O)cc(O)c1C2=O [Emodin, emodin] | – | – | – | – | – | – | exhibited anti-DN effects | Tmax ([1]; in vivo): 30 min; AUC(0-t) ([1]; in vivo, XXD 1.25 g/kg intragastric gavage for 12 weeks, diabetic rats, plasma, mean ± SD n = 8, read-out: AUC0–24 h): 0.061 ± 0.008 µg·h/mL; Cmax ([1]; in vivo, XXD 1.25 g/kg intragastric gavage for 12 weeks, diabetic rats, plasma, mean ± SD n = 8, read-out: C max): 0.013 ± 0.007 µg/mL; AUC(0-t) ([1]; in vivo, XXD 2.5 g/kg intragastric gavage for 12 weeks, diabetic rats, plasma, mean ± SD n = 8, read-out: AUC0–24 h): 0.119 ± 0.025 µg·h/mL; Cmax ([1]; in vivo, XXD 2.5 g/kg intragastric gavage for 12 weeks, diabetic rats, plasma, mean ± SD n = 8, read-out: C max): 0.022 ± 0.009 µg/mL |
| COc1cc2c(cc1O)CC[n+]1cc3c(OC)c(OC)ccc3cc1-2 [Jatrorrhizine, jatrorrhizine] | double peaks | – | 0.172 ± 0.057 | 0.014 ± 0.009 | 0.201 ± 0.152 | 0.021 ± 0.013 | – | – |
| COc1cc2c(cc1OC)-c1cc3ccc(OC)c(OC)c3c[n+]1CC2 [Palmatine, palmatine] | – | – | – | – | – | – | – | AUC(0-t) ([1]; in vivo, 1.25 g/kg): 0.113 ± 0.069 µg·h/mL; Cmax ([1]; in vivo, 1.25 g/kg): 0.017 ± 0.013 µg/mL; AUC(0-t) ([1]; in vivo, 2.5 g/kg): 0.312 ± 0.197 µg·h/mL; Cmax ([1]; in vivo, 2.5 g/kg): 0.029 ± 0.018 µg/mL |
| O=C(O)c1cc(O)c2c(c1)C(=O)c1cccc(O)c1C2=O [Rhein, rhein] | – | 10 | 1.1 ± 0.216 | 0.961 ± 0.43 | 2.79 ± 0.937 | 1.75 ± 0.514 | exhibited anti-DN effects | renal TGF-β1 protein expression [2]: downregulate |
| COc1c(O)cc(O)c2c(=O)cc(-c3ccccc3)oc12 [Wogonin, wogonin] | – | 10 | 0.154 ± 0.071 | 0.047 ± 0.038 | 0.423 ± 0.307 | 0.149 ± 0.086 | – | – |
| COc1c(O[C@@H]2O[C@H](C(=O)O)[C@@H](O)[C@H](O)[C@H]2O)cc(O)c2c(=O)cc(-c3ccccc3)oc12 [Wogonoside, wogonoside] | double peaks | 10 | 3.46 ± 0.894 | 1.14 ± 0.321 | 8.88 ± 2.99 | 2.24 ± 0.475 | – | – |
| O=C1c2cccc(O)c2C(=O)c2c(O)cc(CO)cc21 [aloeemodin] | – | – | – | – | – | – | – | plasma concentration relative to LLOQ ([1]; at about 0.5–2 h after ig XXD, below the LLOQ at other times): slightly higher than the lower limit of quantification |
